In patent US10947188B2, “Small molecule ferroptosis inducers” (THE TRUSTEES OF COLUMBIA UNIVERSITY IN THE CITY OF NEW YORK, priority 2016, dated 2021):

What was measured:
[1] = test system: HT-1080; experiment: Modulatory profiling: Alamar Blue viability, lethal compound cotreated with death modulator (EC50, AUC); assay type: cell-based; design: AUC, modulator HT.3MA / AUC, modulator HT.ALLN / AUC HT.ATA / AUC HT.ActD / AUC HT.BHA / AUC HT.BHT / AUC HT.BocD / AUC HT.CHX / AUC HT.Co2+ / AUC HT.DPQ / AUC HT.EGTA / AUC HT.Lmim / AUC HT.NAD+ / AUC HT.Nec-1 / AUC HT.SP600125 / AUC HT.TLCK / AUC HT.U0126: unit not given beside the values; conditions: for AUC HT.ATA: HT-1080, modulator ATA; for AUC HT.ActD: HT-1080, modulator ActD; for AUC HT.BHA: HT-1080, modulator BHA; for AUC HT.BHT: HT-1080, modulator BHT; for AUC HT.BocD: HT-1080, modulator BocD; for AUC HT.CHX: HT-1080, modulator CHX; for AUC HT.Co2+: HT-1080, modulator Co2+; for AUC HT.CspA: HT-1080, modulator CspA; for AUC HT.DPQ: HT-1080, modulator DPQ; for AUC HT.EGTA: HT-1080, modulator EGTA; for AUC HT.Gd3+: HT-1080, modulator Gd3+; for AUC HT.LNAME: HT-1080, modulator LNAME; for AUC HT.Lmim: HT-1080, modulator Lmim; for AUC HT.NAD+: HT-1080, modulator NAD+; for AUC HT.NMMA: HT-1080, modulator NMMA; for HT.atoc (AUC) / HT.bCarotene (AUC) / HT.deferox (AUC) / HT.digoxin (AUC) / HT.trolox (AUC) / HT.zVAD (AUC) / EC50: HT-1080; for HT.atoc (AUC): modulator atoc; for HT.bCarotene (AUC): modulator bCarotene; for HT.deferox (AUC): modulator deferox; for HT.digoxin (AUC): modulator digoxin; for HT.trolox (AUC): modulator trolox; for HT.zVAD (AUC): modulator zVAD; for EC50: Homo sapiens, HT-1080, 48 h, 48 h; for AUC HT.BHA: reference of the scale not given here; for AUC HT.EGTA: reference of the scale not given here
[2] = test system: BJeLR; experiment: as above; assay type: cell-based, human; design: AUC, modulator BJ.Gd3+ / AUC, modulator BJ.LNAME / AUC, modulator BJ.Lmin / AUC, modulator BJ.3MA / AUC, modulator BJ.ALLN / AUC, modulator BJ.Boc D / AUC, modulator BJ.CHX / AUC, modulator BJ.Co2+ / AUC, modulator BJ.Nec-1 / AUC, modulator BJ.Pepstatin / AUC, modulator BJ.TLCK / AUC, modulator BJ.atoc / AUC, modulator BJ.trolox / AUC, modulator BJ.zVAD: unit not given beside the values; conditions: for AUC, modulator BJ.3MA / AUC, modulator BJ.ALLN / AUC, modulator BJ.Boc D / AUC, modulator BJ.CHX / AUC, modulator BJ.Co2+ / AUC, modulator BJ.DPQ / AUC, modulator BJ.Gd3+ / AUC, modulator BJ.LNAME / AUC, modulator BJ.Lmin/NAD+ / AUC, modulator BJ.Lmin / AUC, modulator BJ.NAD+ / AUC, modulator BJ.NMMA / AUC, modulator BJ.Nec-1 / AUC, modulator BJ.Pepstatin / AUC, modulator BJ.TLCK: BJeLR cells, modulatory profile value (AUC); for AUC, modulator BJ.3MA: lethal compound cotreated with modulator 3MA; for AUC, modulator BJ.ALLN: lethal compound cotreated with modulator ALLN; for AUC, modulator BJ.Boc D: lethal compound cotreated with modulator Boc D; for AUC, modulator BJ.CHX: lethal compound cotreated with modulator CHX; for AUC, modulator BJ.Co2+: lethal compound cotreated with modulator Co2+; for AUC, modulator BJ.DPQ: lethal compound cotreated with modulator DPQ; for AUC, modulator BJ.Gd3+: lethal compound cotreated with modulator Gd3+; for AUC, modulator BJ.LNAME: lethal compound cotreated with modulator LNAME; for AUC, modulator BJ.Lmin/NAD+: lethal compound cotreated with modulator Lmin/NAD+; for AUC, modulator BJ.Lmin: lethal compound cotreated with modulator Lmin; for AUC, modulator BJ.NAD+: lethal compound cotreated with modulator NAD+; for AUC, modulator BJ.NMMA: lethal compound cotreated with modulator NMMA; for AUC, modulator BJ.Nec-1: lethal compound cotreated with modulator Nec-1; for AUC, modulator BJ.Pepstatin: lethal compound cotreated with modulator Pepstatin; for AUC, modulator BJ.TLCK: lethal compound cotreated with modulator TLCK; for EC50: Homo sapiens, BJeLR, 48 h; for AUC, modulator BJ.3MA: reference of the scale not given here; for AUC, modulator BJ.ALLN: reference of the scale not given here; for AUC, modulator BJ.Boc D: reference of the scale not given here; for AUC, modulator BJ.CHX: reference of the scale not given here; for AUC, modulator BJ.Co2+: reference of the scale not given here; for AUC, modulator BJ.DPQ: reference of the scale not given here; for AUC, modulator BJ.Gd3+: reference of the scale not given here; for AUC, modulator BJ.LNAME: reference of the scale not given here; for AUC, modulator BJ.NAD+: reference of the scale not given here; for AUC, modulator BJ.NMMA: reference of the scale not given here; for AUC, modulator BJ.Nec-1: reference of the scale not given here; for AUC, modulator BJ.Pepstatin: reference of the scale not given here; for AUC, modulator BJ.TLCK: reference of the scale not given here
[3] = cotreated with antioxidant Trolox
[4] = cotreated with iron-chelator Lmim

CC(C(NNC(=O)c1ccc(C(F)(F)F)cc1)c1ccc(Br)cc1)[N+](=O)[O-] (centres unmarked) [CIL87]
AUC HT.ATA [1]: 0.1137 | AUC HT.ActD [1]: −0.007586 | AUC HT.BHA [1]: −0.003358 | AUC HT.BHT [1]: −0.08317 | AUC HT.BocD [1]: −0.007134 | AUC HT.CHX [1]: 0.0673 | AUC HT.Co2+ [1]: 0.03163 | AUC HT.CspA [1]: −0.05358 | AUC HT.DPQ [1]: −0.02562 | AUC HT.EGTA [1]: 0.005305 | AUC HT.Gd3+ [1]: −0.02756 | AUC HT.LNAME [1]: 0.005257 | AUC HT.Lmim [1]: −0.002116 | AUC HT.NAD+ [1]: −0.001926 | AUC HT.NMMA [1]: −0.01237 | HT.atoc (AUC) [1]: 0.05929 | HT.bCarotene (AUC) [1]: 0.01927 | HT.deferox (AUC) [1]: 0.07034 | HT.digoxin (AUC) [1]: 0.04582 | HT.trolox (AUC) [1]: −0.03188 | HT.zVAD (AUC) [1]: 0.02258 | AUC, modulator BJ.3MA [2]: −0.002764 | AUC, modulator BJ.ALLN [2]: −0.08721 | AUC, modulator BJ.Boc D [2]: −0.0134 | AUC, modulator BJ.CHX [2]: 0.295 | AUC, modulator BJ.Co2+ [2]: 0.1416 | AUC, modulator BJ.DPQ [2]: −0.03202 | AUC, modulator BJ.Gd3+ [2]: 0.0149 | AUC, modulator BJ.LNAME [2]: 0.02319 | AUC, modulator BJ.Lmin/NAD+ [2]: 0.07639 | AUC, modulator BJ.Lmin [2]: 0.0007714 | AUC, modulator BJ.NAD+ [2]: −0.03293 | AUC, modulator BJ.NMMA [2]: −0.007384 | AUC, modulator BJ.Nec-1 [2]: −0.0482 | AUC, modulator BJ.Pepstatin [2]: −0.03283 | AUC, modulator BJ.TLCK [2]: 0.003206

COc1ccc(C(=O)C(CN2CCCC2)c2ccccc2)cc1 (centres unmarked) [CIL72]
AUC HT.ATA [1]: 0.05533 | AUC HT.ActD [1]: 0.02924 | AUC HT.BHA [1]: −0.04013 | AUC HT.BHT [1]: −0.1002 | AUC HT.BocD [1]: −0.02415 | AUC HT.CHX [1]: 0.1147 | AUC HT.Co2+ [1]: 0.1163 | AUC HT.CspA [1]: −0.01912 | AUC HT.DPQ [1]: −0.03157 | AUC HT.EGTA [1]: 0.009608 | AUC HT.Gd3+ [1]: −9.532E−05 | AUC HT.LNAME [1]: 0.01226 | AUC HT.Lmim [1]: −0.001821 | AUC HT.NAD+ [1]: 0.004195 | AUC HT.NMMA [1]: −0.004443 | HT.atoc (AUC) [1]: −0.02111 | HT.bCarotene (AUC) [1]: −0.01233 | HT.deferox (AUC) [1]: 0.1972 | HT.digoxin (AUC) [1]: −0.01413 | HT.trolox (AUC) [1]: −0.03591 | HT.zVAD (AUC) [1]: 0.05314 | AUC, modulator BJ.3MA [2]: 0.01714 | AUC, modulator BJ.ALLN [2]: 0.00459 | AUC, modulator BJ.Boc D [2]: 0.02672 | AUC, modulator BJ.CHX [2]: 0.2585 | AUC, modulator BJ.Co2+ [2]: 0.1176 | AUC, modulator BJ.DPQ [2]: −0.01087 | AUC, modulator BJ.Gd3+ [2]: 0.03013 | AUC, modulator BJ.LNAME [2]: 0.001053 | AUC, modulator BJ.Lmin/NAD+ [2]: 0.07102 | AUC, modulator BJ.Lmin [2]: 0.004844 | AUC, modulator BJ.NAD+ [2]: −0.0366 | AUC, modulator BJ.NMMA [2]: 0.01422 | AUC, modulator BJ.Nec-1 [2]: −0.02464 | AUC, modulator BJ.Pepstatin [2]: 0.01988 | AUC, modulator BJ.TLCK [2]: 0.03641

O=C(CCl)N(c1ccc(Cl)cc1)c1c[nH]c2ccccc12 [CIL75]
AUC HT.ATA [1]: −0.01715 | AUC HT.ActD [1]: 0.01892 | AUC HT.BHA [1]: 0.3131 | AUC HT.BHT [1]: 0.2828 | AUC HT.BocD [1]: −0.01219 | AUC HT.CHX [1]: 0.0402 | AUC HT.Co2+ [1]: 0.1217 | AUC HT.CspA [1]: −0.009674 | AUC HT.DPQ [1]: 0.01971 | AUC HT.EGTA [1]: −0.007018 | AUC HT.Gd3+ [1]: −0.02285 | AUC HT.LNAME [1]: −0.01737 | AUC HT.Lmim [1]: 0.2499 | AUC HT.NAD+ [1]: −0.002594 | AUC HT.NMMA [1]: −0.02794 | HT.atoc (AUC) [1]: 0.3816 | HT.bCarotene (AUC) [1]: −0.01871 | HT.deferox (AUC) [1]: 0.4009 | HT.digoxin (AUC) [1]: −0.037 | HT.trolox (AUC) [1]: 0.3452 | HT.zVAD (AUC) [1]: 0.0001191 | effect of ferroptosis inhibitors (iron chelators and lipophilic antioxidants) on lethality in modulatory profiling ([1]; HT-1080 and BJeLR): suppression by canonical ferroptosis inhibitors | EC50 ([1]; DMSO): 0.144 µM | EC50 ([1]; cotreated with MEK inh U0126): 2.53 µM | EC50 ([1]; cotreated with antioxidant Atoc): 2.94 µM | EC50 ([1]; cotreated with antioxidant BHA): 2.75 µM | EC50 ([1]; cotreated with antioxidant BHT): 1.72 µM | EC50 [1, 3]: 2.56 µM | EC50 ([1]; cotreated with iron-chelator Deferoxamine): 4.82 µM | EC50 [1, 4]: 2.47 µM | AUC, modulator BJ.3MA [2]: 0.04653 | AUC, modulator BJ.ALLN [2]: 0.01301 | AUC, modulator BJ.Boc D [2]: 0.03092 | AUC, modulator BJ.CHX [2]: −0.009103 | AUC, modulator BJ.Co2+ [2]: 0.2049 | AUC, modulator BJ.DPQ [2]: −1.616E−05 | AUC, modulator BJ.Gd3+ [2]: 0.0459 | AUC, modulator BJ.LNAME [2]: 0.01184 | AUC, modulator BJ.Lmin/NAD+ [2]: 0.2292 | AUC, modulator BJ.Lmin [2]: 0.146 | AUC, modulator BJ.NAD+ [2]: −0.01643 | AUC, modulator BJ.NMMA [2]: −0.01449 | AUC, modulator BJ.Nec-1 [2]: 0.1883 | AUC, modulator BJ.Pepstatin [2]: 0.07275 | AUC, modulator BJ.TLCK [2]: 0.2311 | EC50 ([2]; DMSO): 0.0598 µM | EC50 ([2]; cotreated with Lmim_NAD): 0.314 µM | EC50 [2, 3]: 1.1 µM | EC50 ([2]; cotreated with antioxidant atoc): 1.04 µM | EC50 [2, 4]: 0.341 µM
